Source: patent US10316041B2, “Spiro-lactam NMDA receptor modulators and uses thereof” (Apytinyx Inc., priority 2013, dated 2019)
Read-outs that look alike come from different tables or passages of the source.

Columns and labels:
[1] = system: Schaffer collateral-CA1 synapses in hippocampal slices; test: Long term potentiation in hippocampal slices; type: cell-based, rat
Procedure: Assays were conducted as described in Zhang et al. (Zhang, X. L., Sullivan, J. A., Moskal, J. R., Stanton, P. K., 2008. A NMDA receptor glycine site partial agonist, GLYX-13, simultaneously enhances LTP and reduces LTD at Schaffer collateral-CA1 synapses in hippocampus. Neuropharmacology. 55, 1238-50) Sprague-Dawley rats (12-18 days old; Taconic Farms) were deeply anesthetized with isoflurane and decapitated. Rat brains were removed rapidly, submerged in ice-cold artificial cerebrospinal fluid (ACSF, 2-4° C.), which contained (in mM): 124 NaCl, 4 KCl, 2 MgSO4, 2 CaCl2, 1.25 NaH2PO4, 26 NaHCO3, 10 glucose; at pH 7.4, gassed continuously with 95% O2/5% CO2). The rat brains were hemisected, the frontal lobes cut off, and individual hemispheres glued using cyanoacrylate adhesive onto a stage immersed in ice-cold ACSF gassed continuously with 95% O2/5% CO2 during slicing. Coronal slices (400 μm thick) were cut using a Vibratome (Leica VT1200S), and transferred to an interface holding chamber for incubation at room temperature for a minimum of one hour before transferring to a Haas-style interface recording chamber continuously perfused at 3 ml/min with oxygenated ACSF at 32±0.5° C. […] A bipolar stainless steel stimulating electrode (FHC Co.) was placed on Schaffer collateral-commissural fibers in CA3 stratum radiatum, and constant current stimulus intensity adjusted to evoke approximately half-maximal fEPSPs once each 30 s ([…]; 100 μs duration). fEPSP slope was measured before and after induction of LTP by linear interpolation from 20 to 80% of maximum negative deflection, and slopes confirmed to be stable to within ±10% for at least 15 min before commencing an experiment. […] The signals were recorded using a Multiclamp 700B amplifier and digitized with a Digidata 1322 (Axon Instruments, USA). Data were analyzed using pClamp software (version 9, Axon Instruments) on an IBM-compatible personal computer.

[2] = Porsolt test (floating time); type: in vivo; conditions: 3 mg/kg, IV, 1 hour post dose
[3] = target: T1, NMDA receptor (rat cortical membranes) (Rattus norvegicus, UniProt P35439); test: [3H]MK-801 binding assay (potentiation of binding); conditions: for Activity (%): maximal activity, % maximal stimulation (1 mM glycine)
T1 construct: from tissue; host or cells: rat cerebral cortex membranes
Procedure: Assays were conducted as described in Moskal et al. (Moskal, J. R., Kuo, A. G., Weiss, C., Wood, P. L., O'Connor Hanson, A., Kelso, S., Harris, R. B., Disterhoft, J. F., 2005. GLYX-13: a monoclonal antibody-derived peptide that acts as an N-methyl-D-aspartate receptor modulator. Neuropharmacology. 49, 1077-87) The potentiation of [^3H]MK-801 binding (5 nM; 22.5 Ci/mmol) to well washed rat cortical membranes (200 μg) was measured under non-equilibrium conditions (15 min @ 25° C.) in the presence of increasing concentrations of test compounds and 50 μM glutamate. Zero levels were determined in the absence of any glycine ligand and in the presence of 30 μM 5.7 DCKA. Maximal stimulation was measured in the presence of 1 mM glycine, and 50 μM glutamate was present in all samples. The facilitation of [^3H]MK-801 binding by tests compounds was calculated by using a 3 parameter log agonist vs. response equation (Graph pad Prism, USA) and potency (EC50 expressed in pM) and maximal activity (% maximal stimulation) were calculated for the test compound.

[4] = read-out: [3H] MK-801 binding assay: EC50
[5] = potentiation of [3H]MK-801 binding, 50 μM glutamate, rat cortical membranes, read-out: pEC50 (converted)

Molecule	EC50 [3, 4]	Activity (%) [3]	EC50 [3, 5]	also measured
CC(=O)N1CCCC12CN(CC(=O)N[C@H](C(N)=O)[C@@H](C)O)C2=O (single isomer, unassigned) [Compound 6S-FNL-7-F2]				Unified Activity Data: LTP Augmentation (Percent) ([1]; LTP Concentration 1 uM): 150%; Unified Activity Data: Porsolt Floating Time Inhibition (Percent) [2]: 80%
C[C@@H](O)[C@H](NC(=O)CN1CC2(CCCN2C(=O)c2ncnn2C)C1=O)C(N)=O (stereo partly drawn) [Compound C, (2S,3R)-3-hydroxy-2-(2-(5-(1-methyl-1H-1,2,4-triazole-5-carbonyl)-1-oxo-2,5-diazaspiro[3.4]octan-2-yl)acetamido) butanamide]		10%	0.007 nM	
C[C@@H](O)[C@H](NC(=O)CN1CC2(CCCN2C(=O)c2ncnn2C)C1=O)C(=O)N1CCCC1 (stereo partly drawn) [Compound D, N-((2S, 3R)-3-hydroxy-1-oxo-1-(pyrrolidin-1-yl)butan-2-yl)-2-(5-(1-methyl-1H-1,2,4-triazole-5-carbonyl)-1-oxo-2,5-diazaspiro[3.4]octan-2-yl) acetamide]		5%	0.159 nM	
CC(=O)N1CCCC12CN(CC(=O)N[C@H](C(N)=O)[C@@H](C)O)C2=O (stereo partly drawn) [Compound H, (2S,3R)-2-(2-(5-acetyl-1-oxo-2,5-diazaspiro[3.4]octan-2-yl)acetamido)-3-hydroxy butanamide]		20%	0.195 nM	
(2R, 3S)-4-amino-3-(2-(5-(1-benzyl-5-methyl-1H-1, 2, 3-triazole-4-carbonyl)-1-oxo-2, 5-diazaspiro [3.4] octan-2-yl) acetamido)-4-oxobutan-2-yl acetate [Compound B]	0.00727 nM	47%	0.006 nM	Unified Activity Data: LTP Augmentation (Percent) ([1]; LTP Concentration 0.1 uM): 110%; long-term potentiation after high frequency stimulation of Schaffer collateral-evoked NMDA e.p.s.c.s in CA1 pyramidal neurons ([1]; tested at 0.11 μM, FIG. 5): increased long-term potentiation; Unified Activity Data: Porsolt Floating Time Inhibition (Percent) [2]: 86%

Continued, in another order:

EC50 [3, 4]	Activity (%) [3]	EC50 [3, 5]	Molecule	also measured
> 10000 nM			C[C@@H](O)[C@H](NC(=O)CN1CC2(CCCN2C(=O)OCc2ccccc2)C1=O)C(N)=O (stereo in doubt) [Compound 6S-FNL-4, Benzyl 2-(2-((1-amino-3-hydroxy-1-oxobutan-2-yl)amino)-2-oxoethyl)-1-oxo-2,5-diazaspiro [3.4] octane-5-carboxylate]	
1690 nM			CC(=O)O[C@H](C)[C@H](NC(=O)CN1CC2(CCCN2)C1=O)C(N)=O (stereo partly drawn) [Compound 6S-FNL-3, (2R, 3S)-4-amino-4-oxo-3-(2-(1-oxo-2,5-diazaspiro [3.4]octan-2-yl)acetamido) butan-2-yl acetate]	
